{
  "source": "patent US20040153145A1",
  "about": "“Fixation method for bioprostheses” (Clemson University, priority 2002, published 2004)",
  "key": {"[1]": {"assay": "Mass loss of fixed aortic wall after elastase digestion", "design": "species or system Porcine", "conditions": "for % Mass Loss: porcine aortic wall fixed 7 days, 8.5 Units pancreatic elastase, 2 days, 37° C.; for increase in resistance to elastase of aorta: versus fresh aortic wall (60% mass loss in 2 days)", "method": "Porcine aorta fragments were collected from a local slaughterhouse and placed in ice-cold saline. The aorta fragments were fixed separately with GA, TA, and a combination of GA and TA as described below. Following fixation, the samples were treated with high concentrations of elastase to test resistance to enzymatic degradation.\n(§1) Porcine aortic conduits were fixed for 7 days at room temperature in either:\n0.6% GA in 50 mM Hepes buffered saline at pH 7.4 (GA);\n0.3% TA in 50 mM Hepes buffered saline at pH 7.4 (TA); or\nA mixture of 0.6% GA and 0.3% TA in 50 mM Hepes buffered saline at pH 7.4 (GA & TA).\nAfter fixation, tissues were washed in normal saline followed by ddH2O and fragments of 4×4 mm were dissected and lyophilized. Tissue fragments from each group were weighed and incubated for 2 days (about 48 hours) at 37° C. with 8.5 Units of pancreatic elastase in elastase buffer (50 mM Tris, 1 mM CaCl2, 0.02% NaN3, pH 7.8). As positive controls, fresh, untreated tissues exposed to elastase solution were used. Tissue fragments were thoroughly rinsed in ddH2O, lyophilized and weighed. Mass loss due to enzyme digestion was calculated from the difference between tissue weight before and after incubation in elastase. Lower values of Mass Loss, set forth in Table 2 and FIG. 3, are indicative of better tissue preservation and improved putative protection of elastin from enzymatic degradation."}, "[2]": {"assay": "Thermal denaturation temperature (Td) of fixed pericardium by DSC", "assay_type": "physicochemical, bovine", "conditions": "for Td after 24 hours / Td after 44 hours: bovine pericardium, +/− SEM, n = 6; for Td after 24 hours: fixation 24 hours; for Td after 44 hours: fixation 44 hours", "method": "Collagen rich tissue was used as a model to test the possible interference of TA with GA-mediated fixation. Samples of bovine pericardium (tissue including about 85% collagen and 5-10% elastin) was fixed at room temperature in one of either: 1% TA in phosphate buffered saline at pH 7.4 for 24 and 44 hours (TA); 0.5% GA in phosphate buffered saline at pH 7.4 for 24 and 44 hours (GA); 0.5% GA in phosphate buffered saline at pH 7.4 for 60 minutes followed by 1% TA in phosphate buffered saline at pH 7.4 for 24 and 44 hours (GA/TA); or 1% TA in phosphate buffered saline at pH 7.4 for 60 minutes followed by 0.5% GA in phosphate buffered saline at pH 7.4 for 24 and 44 hours (TA/GA). After fixation, tissues were washed in normal saline and the extent of cross-linking was evaluated by analysis of the thermal denaturation temperature (Td). Td reflects that the temperature at which native collagen molecules unravel (around 65° C.) is increased in chemically cross-linked tissues. […]. In the case of connective tissues, Td represents the temperature at which native collagen molecules unravel. This process leads to protein denaturation and is recorded as a peak maximum (FIG. 1). […] Tissues (native, GA fixed, TA fixed, and GA/TA combination fixed, as described above) were rinsed in saline and 2 mm^2 samples were cut and hermetically sealed in Differential Scanning Calorimetry (DSC) aluminum pans. Samples were heated at a rate of 10° C./min, from 25° C. to 110° C. and the temperature of thermal denaturation (Td) for each sample was recorded on a Perkin Elmer DSC 7 machine."}, "[3]": {"assay": "Calcification of fixed aorta after subdermal implantation in juvenile rats", "assay_type": "in vivo, Sprague-Dawley rats", "conditions": "porcine aorta, subdermal implant in juvenile rats, +/− SEM, n = 10", "method": "Porcine aorta fragments were collected from a local slaughterhouse and placed in ice-cold saline. The aorta fragments were fixed with GA and separately with a combination of GA and TA as described below. Following fixation, samples were implanted subdermally in juvenile rats to test for calcification potential.\nas §1\n0.6% GA in 50 mM Hepes buffered saline at pH 7.4 (GA); or\na mixture of 0.6% GA and 0.3% TA in 50 mM Hepes buffered saline at pH 7.4 (GA & TA).\nAfter fixation, tissues were washed in normal saline and fragments of 4×4 mm were tested for calcification by subdermal implantation in juvenile rats (the process used is described in detail by Bailey M, Xiao H, Ogle M, Vyavahare N., ‘Aluminum chloride pretreatment of elastin inhibits elastolysis by matrix metalloproteinases and leads to inhibition of elastin-oriented calcification,’ The American Journal of Pathology, 2001;159(6):1981-6, which is herein incorporated by reference). […]\nAt 7 and 21 days after implantation, rats were humanely euthanized, tissue samples explanted from their subdermal pouches, dried and analyzed for calcium content using atomic absorbtion spectrophotometry (as outlined in publication above). […]"}, "[4]": {"system": "pure elastin", "assay": "Degradation of orcein-labeled pure elastin by elastase", "assay_type": "biochemical", "conditions": "versus buffer control elastin, completely degraded", "method": "Pure elastin labeled with orcein was used as a substrate for the enzyme elastase. The labeled elastin substrate was used per se, as well as labeled elastin fixed separately with glutaraldehyde (GA) and with tannic acid (TA).\nPurified insoluble elastin labeled with orcein was treated for 24 hours at room temperature with one of:\n0.6% GA in 50 mM Hepes buffered saline at pH 7.4 (GA-fixed elastin);\n0.3% TA in 50 mM Hepes buffered saline at pH 7.4 (TA-fixed elastin); or\n50 mM Hepes buffered saline at pH 7.4 (Buffer control).\nElastin samples were centrifuged at 3000 rpm for 10 minutes at room temperature, rinsed with double distilled (dd)H2O and dialyzed in ddH2O. Treated elastin was suspended in elastase buffer (50 mM Tris, 1 mM CaCl2, 0.02% NaN3, pH 7.8) at a concentration of 20 mg/ml. A blank of labeled elastin incubated in the absence of elastase was also prepared for comparison.\nPure pancreatic elastase was prepared at a concentration of 1 Unit/ml in elastase buffer (described above), mixed with treated elastin samples in a 1 to 1 ratio and incubated at 37° C. for 3 days. Samples were centrifuged and elastin degradation was assessed by measuring the presence of soluble orcein-labeled elastin peptides in supernatants, by measuring optical density at 570 nm."}},
  "data": [
    {"smiles": "O=C(OC[C@H]1O[C@@H](OC(=O)c2cc(O)c(O)c(OC(=O)c3cc(O)c(O)c(O)c3)c2)[C@H](OC(=O)c2cc(O)c(O)c(OC(=O)c3cc(O)c(O)c(O)c3)c2)[C@@H](OC(=O)c2cc(O)c(O)c(OC(=O)c3cc(O)c(O)c(O)c3)c2)[C@@H]1OC(=O)c1cc(O)c(O)c(OC(=O)c2cc(O)c(O)c(O)c2)c1)c1cc(O)c(O)c(OC(=O)c2cc(O)c(O)c(O)c2)c1", "note": "[TA, tannic acid]", "values": [
      {"measurement": "% Mass Loss", "setting": "[1]", "result": 41.56, "unit": "%"},
      {"measurement": "increase in resistance to elastase of aorta", "setting": "[1]", "result": "about 20%"},
      {"measurement": "Td after 24 hours", "setting": "[2]", "result": "68.4 +/− 1.4 °C"},
      {"measurement": "Td after 44 hours", "setting": "[2]", "result": "72.6 +/− 0.9 °C"}
    ]},
    {"smiles": "O=CCCCC=O", "note": "[GA, glutaraldehyde]", "values": [
      {"measurement": "Calcium content after 7 days", "setting": "[3]; 7 days", "result": "15.31 +/− 1.54 μg Ca/mg dry"},
      {"measurement": "Calcium content after 21 days", "setting": "[3]; 21 days", "result": "42.18 +/− 2.21 μg Ca/mg dry"},
      {"measurement": "reduction of elastin degradation by elastase", "setting": "[4]", "result": 6.7, "unit": "%"},
      {"measurement": "% Mass Loss", "setting": "[1]", "result": 39.33, "unit": "%"},
      {"measurement": "increase in resistance to elastase of aorta", "setting": "[1]", "result": "about 20%"},
      {"measurement": "Td after 24 hours", "setting": "[2]", "result": "84.5 +/− 0.7 °C"},
      {"measurement": "Td after 44 hours", "setting": "[2]", "result": "85.1 +/− 1.1 °C"},
      {"measurement": "Td", "setting": "[2]; pericardium, DSC 10° C./min, FIG. 1, fresh around 65° C.", "result": 87, "unit": "°C"}
    ]}
  ]
}
